SMILES strings stand for the structures. Structures can show the parent of a compound that is named as a salt. Where two headings read alike, the source gives them in different places.

One experiment deals with T1, GP IIb IIIa (Homo sapiens, UniProt P05106+P08514).
T1 construct: from tissue; host or cells: outdated human platelets
Kind of experiment: Fibrinogen-GP IIb IIIa Receptor ELISA Binding Assay (Fg/IIbIIIa). As for the experimental part: Briefly, microtiter plates are coated with fibrinogen (10 mg/ml) and then blocked with TACTS buffer containing 0.5% bovine serum albumin (BSA). […] After another wash a goat anti-mouse IgG conjugated to horseradish peroxidase is added. […] The reaction is stopped with 1N sulfuric acid and the absorbance at 492 nm is recorded. […] Outdated human platelets are washed 3 times with 10 mM tris-HCl, 150 mM NaCl (TBS), 1 mM EDTA, pH 7.5, and centrifuged at 2000×g to pellet cells. […] The supernatant fraction is collected and the supernatant is loaded onto a concanavalin-A column, previously equilibrated in TBS, 1 mM Ca2 Cl2, 0.1% Triton, 0.05% NaN3 and eluted with 0.2M a-methylmannoside. Fractions are pooled and loaded onto a heparin-agarose column. The flowthrough is collected and concentrated on an Amicon YM 30 filter to a volume of approximately 5-10 ml. The concentrate is then applied to an S-300 column (500 ml) and 6 ml fractions are collected. The GP IIb IIIa containing fractions are collected, pooled, and stored at -80° C. […] The precipitate is spun down in appropriate size bottles at 2000×g. The supernatant is decanted and the precipitate resuspended in 150 mM NaCl (approximately 50% of the original volume). […] The suspension is spun down and the precipitate is resuspended in Tris-saline in a minimal volume (approximately 5% of the original volume). Any remaining insoluble material is spun down at 2000 rpm in a Sorval type centrifuge and the fibrinogen supernatant is decanted and dialyzed overnight at 4° C. against Tris-saline. Characterization of the fibrinogen is by the Bradford protein assay, SDS-PAGE, and/or Western blotting using well known standard procedures. Briefly, 96 well plates are coated (Type Nunc 1 MaxisorpTM) with 10 mg/ml purified fibrinogen ([…]), and allowed to stand overnight at 4° C. […] The plates are again washed three times with PBS/Tween and then […] of sample in TNCNT is added. The mixture is incubated for 15 minutes at room temperature on a plate shaker. […] Fifty ml of this diluted GP IIb IIIa is then added to each well and incubated on a plate shaker at room temperature. After one hour, the plates are washed four times with PBS/Tween and 100 ml of a polyclonal or monoclonal antibody specific for GP IIIa such as AP3 (1 mg/ml) (See e.g. […] After a one hour incubation at room temperature on a plate shaker, the samples are washed 4 times with PBS/Tween. […] The color develops within about 3 to 20 minutes and the reaction is stopped with 100 ml 1M H2 SO4. The optical density at 492 nm vs 405 nm is recorded and IC50 values are determined.
(ELISA stands for enzyme-linked immunosorbent assay.)

For experiment [1], the system named is human platelet rich plasma (PRP). The experiment can be described thus: In Vitro Human Platelet Aggregation Assay (PA). It is filed as cell-based. As to conditions: Homo sapiens, Platelet. As for the experimental part:
In addition to the GPIIb IIIa ELISA assay, platelet aggregation assays may be performed in human platelet rich plasma (PRP). […] The blood is centrifuged at 160×g for 10 min at 22° C. and then allowed to stand for 5 min after which the PRP is decanted. Platelet poor plasma (PPP) is isolated from the remaining blood after centrifugation at 2000×g for 25 min. The platelet count of the PRP is adjusted to ca. 300,000 per microliter with PPP.
A 225 mL aliquot of PRP plus 25 mL of either a dilution of the test sample or a control (PBS) is incubated for 5 min in a Chrono-log Whole Blood Aggregometer at 25° C. An aggregating agent (collagen, 1 mg/ml; U46619, 100 ng/ml; or ADP, 8 mM) is added and the platelet aggregation recorded.
Platelet aggregation assays are performed in human platelet rich plasma (PRP). […] The blood is centrifuged at 160×g for 10 minutes at 22° C. and allowed to stand for 5 minutes after which the PRP is decanted. Platelet poor plasma (PPP) is isolated from the remaining blood after centrifugation at 2000×g for 25 minutes. The platelet count of the PRP is diluted to about 300,000 platelets per microliter with PPP.
A 225 ml aliquot of PRP plus 25 ml of either a dilution of the test inhibitor sample or a control (PBS) is incubated for 5 minutes in a Chrono-log Whole Blood Aggregometer at 25° C. An aggregating agent (collagen, 1 mg/ml; U46619, 100 ng/ml; or ADP, 17 mM) is added and the transmission is recorded.

The mark [2] stands for this setting: Example 29, Cmpd # 1-105, read-out: IC50 Fg/IIbI.
Where [3] appears, read: Example 30, G # table, read-out: IC50 (μM) Fg/IIbIIIa.
The mark [4] stands for this setting: citrate, read-out: PA IC50 (μM) (citrate).
The mark [5] stands for this setting: Examples 29 and 30, Cmpd # tables, read-out: IC50 (μM) Fg/IIbIIIa.

T1 sequence (P08514 32-887 limits assumed): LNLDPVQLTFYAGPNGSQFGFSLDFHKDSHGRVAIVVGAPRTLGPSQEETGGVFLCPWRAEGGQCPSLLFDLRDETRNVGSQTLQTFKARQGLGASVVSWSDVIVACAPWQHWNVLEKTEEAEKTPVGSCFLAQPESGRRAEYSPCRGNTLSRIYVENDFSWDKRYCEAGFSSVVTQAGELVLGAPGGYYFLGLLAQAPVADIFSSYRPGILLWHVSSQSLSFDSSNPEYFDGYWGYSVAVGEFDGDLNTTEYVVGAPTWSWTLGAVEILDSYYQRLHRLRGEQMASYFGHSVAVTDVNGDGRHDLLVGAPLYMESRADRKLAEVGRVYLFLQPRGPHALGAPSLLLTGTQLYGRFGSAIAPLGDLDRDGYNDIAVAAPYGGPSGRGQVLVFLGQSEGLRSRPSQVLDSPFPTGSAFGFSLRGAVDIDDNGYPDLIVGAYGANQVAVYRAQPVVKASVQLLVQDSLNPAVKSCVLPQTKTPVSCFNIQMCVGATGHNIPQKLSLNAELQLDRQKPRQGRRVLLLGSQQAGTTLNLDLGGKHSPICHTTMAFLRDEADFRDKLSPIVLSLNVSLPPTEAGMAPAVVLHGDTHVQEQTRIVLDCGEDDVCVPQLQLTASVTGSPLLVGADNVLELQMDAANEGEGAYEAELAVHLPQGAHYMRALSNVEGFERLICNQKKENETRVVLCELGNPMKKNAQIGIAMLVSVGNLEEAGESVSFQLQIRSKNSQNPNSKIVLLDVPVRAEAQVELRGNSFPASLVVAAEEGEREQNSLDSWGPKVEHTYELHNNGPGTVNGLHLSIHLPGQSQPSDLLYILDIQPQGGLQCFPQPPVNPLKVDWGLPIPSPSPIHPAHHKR
T1 sequence (P08514 891-1039 partner limits assumed): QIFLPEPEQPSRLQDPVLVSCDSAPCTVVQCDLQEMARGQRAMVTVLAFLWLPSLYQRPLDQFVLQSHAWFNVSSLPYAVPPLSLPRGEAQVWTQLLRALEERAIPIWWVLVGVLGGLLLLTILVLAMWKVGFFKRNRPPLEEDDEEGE
T1 sequence (P05106 27-788): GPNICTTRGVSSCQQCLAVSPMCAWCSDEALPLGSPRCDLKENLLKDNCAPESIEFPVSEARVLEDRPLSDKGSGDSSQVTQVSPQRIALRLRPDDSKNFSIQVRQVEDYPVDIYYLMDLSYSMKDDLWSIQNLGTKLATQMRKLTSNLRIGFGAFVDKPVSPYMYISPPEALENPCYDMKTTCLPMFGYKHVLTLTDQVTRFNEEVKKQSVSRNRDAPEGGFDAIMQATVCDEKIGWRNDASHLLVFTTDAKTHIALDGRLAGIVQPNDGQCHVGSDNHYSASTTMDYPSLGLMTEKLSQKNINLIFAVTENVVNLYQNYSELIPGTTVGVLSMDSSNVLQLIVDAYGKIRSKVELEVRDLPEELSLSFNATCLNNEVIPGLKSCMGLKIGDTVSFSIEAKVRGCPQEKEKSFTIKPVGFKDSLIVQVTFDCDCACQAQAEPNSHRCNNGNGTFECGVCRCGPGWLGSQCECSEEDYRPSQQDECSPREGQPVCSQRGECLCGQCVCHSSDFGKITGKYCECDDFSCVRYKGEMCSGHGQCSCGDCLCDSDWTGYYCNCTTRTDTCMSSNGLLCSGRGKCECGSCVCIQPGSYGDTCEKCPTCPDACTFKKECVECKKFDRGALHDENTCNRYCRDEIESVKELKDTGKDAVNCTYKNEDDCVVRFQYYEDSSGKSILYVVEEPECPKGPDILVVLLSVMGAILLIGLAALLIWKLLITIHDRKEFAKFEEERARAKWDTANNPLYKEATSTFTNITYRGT

On to `CC(CC(=O)O)N1CC(=O)N(C)c2ccc(C#CCCCNC(=N)N)cc2C1=O` (stereo not shown) [Cmpd 38, 1-methyl-4-(2-carboxy-1-methylethyl)-7-(5-guanidino-1-pentynyl)-3,4-dihydro-1H-1,4, benzodiazepine-2,5-dione trifluroacetate], for which the IC50 on GP IIb IIIa (setting [2]) came to 0.018 µM; at GP IIb IIIa (setting [3]) it was 0.018 µM; in experiment [1] (setting [4]) it was 1.19 µM.
Take `O=C(O)CCN1CC(=O)N(Cc2ccc(Cl)cc2)c2ccc(-c3ccc(N4CCNCC4)cc3)cc2C1=O` [Cmpd 73, 1-(p-chlorobenzyl)-7-[4-(1-piperazine)phenyl]-4-(2-carboxyethyl)-3,4-dihydro-1H-1,4-benzodiazpine-2,4-dione trifluoroacetate]: the IC50 at GP IIb IIIa (setting [2]) was determined as 0.007 µM; at GP IIb IIIa (setting [3]) it was 0.007 µM; in experiment [1] (setting [4]), 0.67 µM; in experiment [1] (heparin, read-out: PA IC50 (μM) (heparin)), 2.3 µM.
As to `N=C(N)NCCCCCc1ccc2c(c1)C(=O)N(CCC(=O)O)CC(=O)N2Cc1ccc2ccccc2c1` [Cmpd 75, 1-(2-napthyl)methyl-4-(2-carboxyethyl)-7-(5-guanidinopentyl)-3,4-dihydro-1H-1,4-benzodiazepine-2,5-dione trifluoroacetate], the IC50 turned out to be 0.011 µM at GP IIb IIIa (setting [2]), 0.011 µM on GP IIb IIIa (setting [3]) and 6.88 µM in experiment [1] (setting [4]).
Consider `NCCCCCc1ccc2c(c1)C(=O)N(CCC(=O)O)CC(=O)N2Cc1ccc2ccccc2c1` [Cmpd 76, 1-(2-napthyl)methyl-4-(2-carboxyethyl)-7-(5-aminopentyl)-3,4-dihydro-1H-1,4-benzodiazepine-2,5-dione trifluoroacetate], for which the IC50 was 0.077 µM on GP IIb IIIa (setting [2]), 0.077 µM at GP IIb IIIa (setting [3]) and 28.9 µM in experiment [1] (setting [4]).
Take `N=C(N)NCCCCCc1ccc2c(c1)C(=O)N(CCC(=O)O)CC(=O)N2Cc1cccc2ccccc12` [Cmpd 77, 1-(1-napthyl)methyl-4-(2-carboxyethyl)-7-(5-guanidinopentyl)-3,4-dihydro-1H-1,4-benzodiazepine-2,5-dione trifluoroacetate]: the figures for the IC50 (at GP IIb IIIa (setting [2]); on GP IIb IIIa (setting [3]); in experiment [1] (setting [4])) were 0.008 µM, 0.008 µM and 2.65 µM, respectively.
As for `NCCCCCc1ccc2c(c1)C(=O)N(CCC(=O)O)CC(=O)N2Cc1cccc2ccccc12` [Cmpd 78, 1-(1-napthyl)methyl-4-(2-carboxyethyl)-7-(5-aminopentyl)-3,4-dihydro-1H-1,4-benzodiazepine-2,5-dione trifluoroacetate], the figures for the IC50 (on GP IIb IIIa (setting [2]); on GP IIb IIIa (setting [3]); in experiment [1] (setting [4])) were 0.066 µM, 0.066 µM and 6.53 µM, respectively.
On to `COc1ccc(CN2C(=O)CN(CCC(=O)O)C(=O)c3cc(CCCCCCN)ccc32)cc1` [Cmpd 81, 1-(p-methoxybenzyl)-4-(2-carboxyethyl)-7-(6-aminohexyl)-3,4-dihydro-1H-1,4-benzodiazepine-2,5-dione trifluoroacetate], for which the IC50 on GP IIb IIIa (setting [2]) is 0.023 µM; on GP IIb IIIa (setting [3]), 0.023 µM; in experiment [1] (setting [4]), 0.98 µM.
`NCCCCCCc1ccc2c(c1)C(=O)N(CCC(=O)O)CC(=O)N2Cc1cccc2ccccc12` [Cmpd 82, 1-(1-napthyl)methyl-4-(2-carboxyethyl)-7-(6-aminohexyl)-3,4-dihydro-1H-1,4-benzodiazepine-2,5-dione trifluoroacetate]: the IC50 on GP IIb IIIa (setting [2]) is 0.015 µM; at GP IIb IIIa (setting [3]) it was 0.015 µM; in experiment [1] (setting [4]) it was 0.76 µM.
With `NCCCCCCc1ccc2c(c1)C(=O)N(CCC(=O)O)CC(=O)N2Cc1ccc2ccccc2c1` [Cmpd 83, 1-(2-napthyl)methyl-4-(2-carboxyethyl)-7-(6-aminohexyl)-3,4-dihydro-1H-1,4-benzodiazepine-2,5-dione trifluoroacetate], the IC50 at GP IIb IIIa (setting [2]) is 0.017 µM; on GP IIb IIIa (setting [3]), 0.017 µM; in experiment [1] (setting [4]) it was 3.19 µM.
As to `COc1ccc(CN2C(=O)CN(CCC(=O)O)C(=O)c3cc(CCCCCCNC(=N)N)ccc32)cc1` [Cmpd 84, 1-(p-methoxybenzyl)-4-(2-carboxyethyl)-7-(6-guanidinohexyl)-3,4-dihydro-1H-1,4-benzodiazepine-2,5-dione trifluoroacetate], the IC50 on GP IIb IIIa (setting [2]) came to 0.024 µM; at GP IIb IIIa (setting [3]) it was 0.024 µM; in experiment [1] (setting [4]) it was 10.4 µM.
`N=C(N)NCCCCCc1ccc2c(c1)C(=O)N(CCC(=O)O)CCO2` [Cmpd 147]: the IC50 at GP IIb IIIa (setting [5]) was 3 µM.
With `NCCCC#Cc1ccc2c(c1)C(=O)N(CCC(=O)O)CC(Cc1ccccc1)O2` (stereo not shown) [Cmpd 148], on GP IIb IIIa (setting [5]), the IC50 was 5.9 µM.
Same read-out and setting: to `N=C(N)NCCCC#Cc1ccc2c(c1)C(=O)N(CCC(=O)O)CC(Cc1ccccc1)O2` (stereo not shown) [Cmpd 149] belongs 0.823 µM.
On the same count and under the same terms, the value for `NCCOc1ccc(-c2ccc3c(c2)C(=O)N(CCC(=O)O)CC(Cc2ccccc2)O3)cc1` (stereo not shown) [Cmpd 150, trifluoroacetate] was 0.119 µM.
For the molecule `NCCCCCCCCOc1ccc2c(c1)C(=O)N(CCC(=O)O)CCC2` [Cmpd 151, 2-(2-carboxyethyl)-8-(8-aminooctyloxy)-2,3,4,5-tetrahydro-1H-2-benzazepin-1-one trifluoroacetate], the IC50 at GP IIb IIIa (setting [5]) was more than 100 µM.
Still for that read-out and setting: to `N=C(N)NCCCCCCCCOc1ccc2c(c1)C(=O)N(CCC(=O)O)CCC2` [Cmpd 152, 2-(2-carboxyethyl)-8-(8-guanadinooctyloxy)-2,3,4,5-tetrahydro-1H-2-benzazepin-1-one trifluoroacetate] belongs 50 µM.
The same measure, in the same setting: the value for `NCCCC#Cc1ccc2c(c1)C(=O)N(CCC(=O)O)CCC2` [Cmpd 153, 2-(2-carboxyethyl)-8-(5-aminopentynyl)-2,3,4,5-tetrahydro-1H-2-benzazepin-1-one trifluoroacetate] was more than 100 µM; that for `N=C(N)NCCCC#Cc1ccc2c(c1)C(=O)N(CCC(=O)O)CCC2` [Cmpd 154, 2-(2-carboxyethyl)-8-(5-guanidinopentynyl)-2,3,4,5-tetrahydro-1H-2-benzazepin-1-one trifluoroacetate] was 20 µM.
The same measure, in the same setting: to `NCCCCCc1ccc2c(c1)C(=O)N(CCC(=O)O)CCC2` [Cmpd 155] belongs more than 100 µM; to `N=C(N)NCCCCCc1ccc2c(c1)C(=O)N(CCC(=O)O)CCC2` [Cmpd 156], approximately 100 µM; to `N=C(N)c1ccc(COc2ccc3c(c2)C(=O)N(CCC(=O)O)CCC3)cc1` [Cmpd 157, 2-(2-carboxyethyl)-8-(4-amidinobenzyloxy)-2,3,4,5-tetrahydro-1H-2-benzazepin-1-one trifluoroacetate], 0.137 µM.
Turning to `N=C(N)NCCCc1cccc(C(=O)NCCC(=O)O)c1` [Cmpd 158], the IC50 on GP IIb IIIa (setting [5]) came out at 2.3 µM.
Same read-out and setting: the value for `N=C(N)NCC#Cc1cccc(C(=O)NCCC(=O)O)c1` [Cmpd 159] was 0.552 µM.
Take `N=C(N)NCCC#Cc1cccc(C(=O)NCCC(=O)O)c1` [Cmpd 160]: the IC50 on GP IIb IIIa (setting [5]) came out at 1.01 µM.
For `NCCCC#Cc1cccc(C(=O)NCCC(=O)O)c1` [Cmpd 161], the IC50 at GP IIb IIIa (setting [5]) worked out at 9 µM.
Turning to `N=C(N)NCCCC#Cc1cccc(C(=O)NCCC(=O)O)c1` [Cmpd 162], the IC50 at GP IIb IIIa (setting [5]) was 1 µM.
Consider `NCCCCC#Cc1cccc(C(=O)NCCC(=O)O)c1` [Cmpd 163], for which, on GP IIb IIIa (setting [5]), the IC50 turned out to be 2.7 µM.
The same measure, in the same setting: to `N=C(N)NCCCCC#Cc1cccc(C(=O)NCCC(=O)O)c1` [Cmpd 164] belongs 3.4 µM.

The record behind these values is patent publication US5250679A, “Nonpeptidyl platelet aggregation inhibitors having specificity for the GPIIb III receptor” (Genentech, Inc., priority 1992, dated 1993).
